Source: patent US20140315972A1, “RS)-2-(2-oxo-4-phenylpyrrolidin-1-yl)acetamide compound having modulatory activity with a commensurate effect, pharmaceutical substance (variants) and its application, composition (variants) thereof” (priority 2011, published 2014)
Marks after values point to notes of the source that are not given here.

Assay: Body weight in obese rats, 1 month intragastric course
Format: in vivo
Details: for Body weight (%): change vs control (dist. water) = 100
Method: Investigation of the effect of Phenotropil on body weight at course intragastric administration for 1 month was performed at doses of 25, 50, 100, 200 and 300 mg/kg/day in white outbred rats of both sexes with obvious signs of obesity (380-430 g) without changes in diet and behavior. Each animal was placed in a standard single cell. The body weight, the amount of water and food consumed per day were recorded.

Q: With `NC(=O)CN1CC(c2ccccc2)CC1=O` (racemic) [Compound 1, (RS)-2-(2-oxo-4-phenylpyrrolidine-1-yl)acetamide] as the compound, how does the “Body weight (%)” value (25 mg/kg) read?
A: The value was −14.0%.

Q: And the “reduction of body weight relative to control” value (25 mg/kg/day i.g. 1 month)?
A: Its value is 14%.

Q: And the “Body weight (%)” value (50 mg/kg)?
A: Its value is −25.0 * %.

Q: And the “reduction of body weight relative to control” value (50 mg/kg/day i.g. 1 month)?
A: Its value is 25%.

Q: And the “Body weight (%)” value (100 mg/kg)?
A: Its value is −33.3 * %.

Q: And the “reduction of body weight relative to control” value (100 mg/kg/day i.g. 1 month)?
A: The value was 33.3%.

Q: And the “Body weight (%)” value (200 mg/kg)?
A: The value was −35.0 * %.

Q: And the “reduction of body weight relative to control” value (200 mg/kg/day i.g. 1 month)?
A: Its value is 35%.

Q: And the “Body weight (%)” value (300 mg/kg)?
A: Its value is −32.0 * %.

Q: What about the “reduction of body weight relative to control” value (300 mg/kg/day i.g. 1 month) of the same compound?
A: Its value is 32%.
